Source: US20250230155A1 (Vanderbilt University, priority 2021, published 2025)
Where two headings read alike, the source gives them in different places.

Molecular target: T1, human mAChR M4 (Homo sapiens, UniProt P08173)
T1 construct: expressed in transfected cells
T1 sequence (P08173 1-479): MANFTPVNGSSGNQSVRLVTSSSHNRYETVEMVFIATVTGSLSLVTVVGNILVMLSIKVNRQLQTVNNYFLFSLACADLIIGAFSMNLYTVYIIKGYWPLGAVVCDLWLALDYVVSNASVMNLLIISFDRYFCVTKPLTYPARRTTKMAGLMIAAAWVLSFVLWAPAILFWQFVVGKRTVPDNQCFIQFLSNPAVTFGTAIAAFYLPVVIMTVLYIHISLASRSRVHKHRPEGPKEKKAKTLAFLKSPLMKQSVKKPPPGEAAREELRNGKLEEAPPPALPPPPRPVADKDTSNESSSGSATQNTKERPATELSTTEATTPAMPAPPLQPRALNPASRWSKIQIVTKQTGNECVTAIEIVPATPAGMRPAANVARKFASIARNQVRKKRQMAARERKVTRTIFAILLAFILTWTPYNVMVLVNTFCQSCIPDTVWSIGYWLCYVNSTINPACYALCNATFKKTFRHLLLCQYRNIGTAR
Assay: mAChR M4 cell-based functional assay (calcium mobilization, CHO-K1 hM4-Gqi5 cells)
Conditions: for Emax at 30 µM: CHO-K1, % ACh maximum at 30 μM, human M4; for EC50: increase in the EC20 acetylcholine response, CHO-K1 hM4-Gqi5 cells
How it was run: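 Fluorescent calcium read-out (Fluo-4 AM, FDSS, 1 Hz) in hM4-Gqi5 CHO-K1 cells, 11-point 1:3 compound series. Agonism scored on compound addition, PAM activity as increase of the 144 s EC20 acetylcholine response, antagonism as decrease of the 230 s EC80 response; four-parameter logistic fits give EC50 and Emax.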

[1] = positive allosteric modulator activity, read-out: Human M4 EC50

SMILES | Emax at 30 µM | EC50 [1] | Emax (CHO-K1) | EC50 (Human M4 EC50, positive allosteric modulator activity)
Cc1cnc2c(c1)CN(c1ncc(C#N)cc1C)CC2 [compound 179, 5-methyl-6-(3-methyl-7,8-dihydro-5H-1,6-naphthyridin-6-yl)pyridine-3-carbonitrile] |  |  | 98% | 100 nM
Cc1cc(C#N)cnc1N1CCc2ncc(Oc3cccc(F)c3)cc2C1 [compound 181, 6-[3-(3-fluorophenoxy)-7,8-dihydro-5H-1,6-naphthyridin-6-yl]-5-methyl-pyridine-3-carbonitrile] | 90% | 141 nM |  | 
Cc1cc(C#N)cnc1N1CCc2ncc(Oc3ccc4c(cnn4C)c3)cc2C1 [compound 183, 5-methyl-6-[3-(1-methylindazol-5-yl)oxy-7,8-dihydro-5H-1,6-naphthyridin-6-yl]pyridine-3-carbonitrile] | 91% | 164 nM |  | 
Cc1nc(C)c(-c2cnc3c(c2)CN(c2ncc(C#N)cc2C)CC3)s1 [compound 184, 6-[3-(2,4-dimethylthiazol-5-yl)-7,8-dihydro-5H-1,6-naphthyridin-6-yl]-5-methyl-pyridine-3-carbonitrile] | 111% | 106 nM |  | 
Cc1ncc(-c2cnc3c(c2)CN(c2ncc(C#N)cc2C)CC3)s1 [compound 185, 5-methyl-6-[3-(2-methylthiazol-5-yl)-7,8-dihydro-5H-1,6-naphthyridin-6-yl]pyridine-3-carbonitrile] | 101% | 211 nM |  | 
Cc1cc(C#N)cnc1N1CCc2ncc(-c3ccc(C4CC4)nc3)cc2C1 [compound 186, 6-[3-(6-cyclopropyl-3-pyridyl)-7,8-dihydro-5H-1,6-naphthyridin-6-yl]-5-methyl-pyridine-3-carbonitrile] | 97% | 318 nM |  | 
Cc1cc(-c2cnc3c(c2)CN(c2nnc(C(=O)NCc4ccncc4)c(C)c2C)CC3)ccn1 [compound 189, 4,5-dimethyl-6-[3-(2-methyl-4-pyridyl)-7,8-dihydro-5H-1,6-naphthyridin-6-yl]-N-(4-pyridylmethyl)pyridazine-3-carboxamide] | 93% | 199 nM |  | 
Cc1nc(Cl)c(C)c(N2CCc3ncc(-c4c(C)nn(C)c4C)cc3C2)n1 [compound 193, 6-(6-chloro-2,5-dimethyl-pyrimidin-4-yl)-3-(1,3,5-trimethylpyrazol-4-yl)-7,8-dihydro-5H-1,6-naphthyridine] | 82% | 605 nM |  | 
Cc1nc(Cl)c(C)c(N2CCc3ncc(-c4cnn(C5CCC5)c4)cc3C2)n1 [compound 195, 6-(6-chloro-2,5-dimethyl-pyrimidin-4-yl)-3-(1-cyclobutylpyrazol-4-yl)-7,8-dihydro-5H-1,6-naphthyridine] | 80% | 611 nM |  | 
Cc1nc(Cl)c(C)c(N2CCc3ncc(-c4c(C)noc4C)cc3C2)n1 [compound 197, 4-[6-(6-chloro-2,5-dimethyl-pyrimidin-4-yl)-7,8-dihydro-5H-1,6-naphthyridin-3-yl]-3,5-dimethyl-isoxazole] | 92% | 63 nM |  | 
Cc1nc(Cl)c(C)c(N2CCc3ncc(-c4sc(C)nc4C)cc3C2)n1 [compound 198, 5-[6-(6-chloro-2,5-dimethyl-pyrimidin-4-yl)-7,8-dihydro-5H-1,6-naphthyridin-3-yl]-2,4-dimethyl-thiazole] | 92% | 137 nM |  | 
Cc1nc(Cl)c(C)c(N2CCc3ncc(-c4cnc(C)s4)cc3C2)n1 [compound 199, 5-[6-(6-chloro-2,5-dimethyl-pyrimidin-4-yl)-7,8-dihydro-5H-1,6-naphthyridin-3-yl]-2-methyl-thiazole] | 81% | 140 nM |  | 
Cc1nc(C)c(C)c(N2CCc3ncc(-c4cn(C)nc4C)cc3C2)n1 [compound 201, 3-(1,3-dimethylpyrazol-4-yl)-6-(2,5,6-trimethylpyrimidin-4-yl)-7,8-dihydro-5H-1,6-naphthyridine] | 77% | 176 nM |  | 
Cc1nc(Cl)c(C)c(N2CCc3ncc(Oc4ccc(F)cc4)cc3C2)n1 [compound 202, 6-(6-chloro-2,5-dimethyl-pyrimidin-4-yl)-3-(4-fluorophenoxy)-7,8-dihydro-5H-1,6-naphthyridine] | 78% | 921 nM |  | 
Cc1nc(Cl)c(C)c(N2CCc3ncc(Oc4ccccc4F)cc3C2)n1 [compound 204, 6-(6-chloro-2,5-dimethyl-pyrimidin-4-yl)-3-(2-fluorophenoxy)-7,8-dihydro-5H-1,6-naphthyridine] | 90% | 328 nM |  | 
COc1ccc(Oc2cnc3c(c2)CN(c2nc(C)nc(Cl)c2C)CC3)cn1 [compound 205, 6-(6-chloro-2,5-dimethyl-pyrimidin-4-yl)-3-[(6-methoxy-3-pyridyl)oxy]-7,8-dihydro-5H-1,6-naphthyridine] | 67% | 1340 nM |  | 
Cc1nc(Cl)c(C)c(N2CCc3ncc(Oc4ccc5c(c4)OCCO5)cc3C2)n1 [compound 206, 6-(6-chloro-2,5-dimethyl-pyrimidin-4-yl)-3-(2,3-dihydro-1,4-benzodioxin-6-yloxy)-7,8-dihydro-5H-1,6-naphthyridine] | 77% | 534 nM |  | 
Cc1nc(Cl)c(C)c(N2CCc3ncc(Oc4cccnc4)cc3C2)n1 [compound 207, 6-(6-chloro-2,5-dimethyl-pyrimidin-4-yl)-3-(3-pyridyloxy)-7,8-dihydro-5H-1,6-naphthyridine] | 86% | 370 nM |  | 

More lines, main results first:

Emax at 30 µM | EC50 [1] | SMILES | Emax (CHO-K1) | EC50 (Human M4 EC50, positive allosteric modulator activity)
87% | 262 nM | Cc1cc(C(=O)NCc2ccncc2)cnc1N1CCc2ncc(-c3cccnc3F)cc2C1 [compound 178, 6-[3-(2-fluoro-3-pyridyl)-7,8-dihydro-5H-1,6-naphthyridin-6-yl]-5-methyl-N-(4-pyridylmethyl)pyridine-3-carboxamide] |  | 
94% | 96.9 nM | Cc1cc(C#N)cnc1N1CCc2ncc(Oc3ccccc3F)cc2C1 [compound 180, 6-[3-(2-fluorophenoxy)-7,8-dihydro-5H-1,6-naphthyridin-6-yl]-5-methyl-pyridine-3-carbonitrile] |  | 
75% | 439 nM | COc1ccc(Oc2cnc3c(c2)CN(c2ncc(C#N)cc2C)CC3)cn1 [compound 182, 6-[3-[(6-methoxy-3-pyridyl)oxy]-7,8-dihydro-5H-1,6-naphthyridin-6-yl]-5-methyl-pyridine-3-carbonitrile] |  | 
108% | 138 nM | Cc1ccc(-c2cnc3c(c2)CN(c2ncc(C#N)cc2C)CC3)cn1 [compound 187, 5-methyl-6-[3-(6-methyl-3-pyridyl)-7,8-dihydro-5H-1,6-naphthyridin-6-yl]pyridine-3-carbonitrile] |  | 
106% | 244 nM | COc1ccc(-c2cnc3c(c2)CN(c2ncc(C#N)cc2C)CC3)cn1 [compound 188, 6-[3-(6-methoxy-3-pyridyl)-7,8-dihydro-5H-1,6-naphthyridin-6-yl]-5-methyl-pyridine-3-carbonitrile] |  | 
105% | 136 nM | Cc1c(C(=O)NCc2ccncc2)nnc(N2CCc3ncc(Nc4ccccc4F)cc3C2)c1C [compound 190, 6-[3-(2-fluoroanilino)-7,8-dihydro-5H-1,6-naphthyridin-6-yl]-4,5-dimethyl-N-(4-pyridylmethyl)pyridazine-3-carboxamide] |  | 
98% | 187 nM | Cc1cc(C#N)cnc1N1CCc2ncc(-c3cccnc3)cc2C1 [compound 191, 5-methyl-6-[3-(3-pyridyl)-7,8-dihydro-5H-1,6-naphthyridin-6-yl]pyridine-3-carbonitrile] |  | 
90% | 169 nM | Cc1nc(Cl)c(C)c(N2CCc3ncc(-c4cn(C)nc4C)cc3C2)n1 [compound 192, 6-(6-chloro-2,5-dimethyl-pyrimidin-4-yl)-3-(1,3-dimethylpyrazol-4-yl)-7,8-dihydro-5H-1,6-naphthyridine] |  | 
93% | 211 nM | Cc1nc(Cl)c(C)c(N2CCc3ncc(-c4cnn(CC5CC5)c4)cc3C2)n1 [compound 194, 6-(6-chloro-2,5-dimethyl-pyrimidin-4-yl)-3-[1-(cyclopropylmethyl)pyrazol-4-yl]-7,8-dihydro-5H-1,6-naphthyridine] |  | 
70% | 1170 nM | COc1nc(C)nc(N2CCc3ncc(-c4cn(C)nc4C)cc3C2)c1C [compound 196, 3-(1,3-dimethylpyrazol-4-yl)-6-(6-methoxy-2,5-dimethyl-pyrimidin-4-yl)-7,8-dihydro-5H-1,6-naphthyridine] |  | 
96% | 128 nM | Cc1nc(Cl)c(C)c(N2CCc3ncc(C(F)(F)F)cc3C2)n1 [compound 200, 6-(6-chloro-2,5-dimethyl-pyrimidin-4-yl)-3-(trifluoromethyl)-7,8-dihydro-5H-1,6-naphthyridine] |  | 
86% | 647 nM | Cc1nc(Cl)c(C)c(N2CCc3ncc(Oc4cccc(F)c4)cc3C2)n1 [compound 203, 6-(6-chloro-2,5-dimethyl-pyrimidin-4-yl)-3-(3-fluorophenoxy)-7,8-dihydro-5H-1,6-naphthyridine] |  | 
